Patent US20230183333A1, “COMPOSITION FOR THE TREATMENT OF PHILADELPHIA CHROMOSOME-POSITIVE ACUTE LYMPHOBLASTIC LEUKEMIA” (priority 2020, published 2023)

B2: mouse IL7R on bone marrow-derived pre-B cells (WT or BCR-ABL1 transformed) (receptor, UniProt P16872 21-459, looked up)
chain: ESGNAQDGDLEDADADDHSFWCHSQLEVDGSQHLLTCAFNDSDINTANLEFQICGALLRVKCLTLNKLQDIYFIKTSEFLLIGSSNICVKLGQKNLTCKNMAINTIVKAEAPSDLKVVYRKEANDFLVTFNAPHLKKKYLKKVKHDVAYRPARGESNWTHVSLFHTRTTIPQRKLRPKAMYEIKVRSIPHNDYFKGFWSEWSPSSTFETPEPKNQGGWDPVLPSVTILSLFSVFLLVILAHVLWKKRIKPVVWPSLPDHKKTLEQLCKKPKTSLNVSFNPESFLDCQIHEVKGVEARDEVESFLPNDLPAQPEELETQGHRAAVHSANRSPETSVSPPETVRRESPLRCLARNLSTCNAPPLLSSRSPDYRDGDRNRPPVYQDLLPNSGNTNVPVPVPQPLPFQSGILIPVSQRQPISTSSVLNQEEAYVTMSSFYQNK
notes: whole, on cells; also called IL7Rα

Columns and labels:
[1] = test system: BCR-ABL1 transformed cells; assay: Imatinib-induced cell death in the presence of cytokine/chemokine (viability, cell cycle); format: cell-based, mouse; settings: added together with 1 μM imatinib
Method: BM cells from WT (n=7, female), IL7Rα^Δ (n=7, female), IL7Rα^fl/fl (n=7, female), CXCR4^fl/fl (n=3, female) and FoxO1^fl/fl (n=3, female) mice were collected and retrovirally transformed with either an empty pMIG vector or with a pMIG vector expressing BCR-ABL1. Unless mentioned otherwise, cells were cultured for 3 to 7 days in Iscove's medium (Biochrom AG) containing 10% heat-inactivated FCS (Sigma-Aldrich), 2 mM 1-glutamine, 100 U/ml penicillin (Gibco), 100 U/ml streptomycin (Gibco), and 50 μM 2-mercaptoethanol. The medium was supplemented in excess with the supernatant of J558L plasmacytoma cells stably transfected with a vector encoding murine IL7. Transformed cells were selected by IL7 withdrawal and kept in optimum conditions^38. Retroviral vectors containing either constitutively active STAT5 (STAT5-CA)^34 or an empty vector were used to transduce BCR-ABL1-transformed cells and sorted cells were used then for western blot or flow cytometry analysis. 1-2μM 4-hydroxy tamoxifen (Tam) (Sigma-Aldrich) was used to induce deletion on plasmids expressing tamoxifen-inducible form of Cre (Cre-ER^T2)^14. All cells were tested and found free from mycoplasma.
Antibodies for flow cytometry (CD19, IL7R, CXCR4, FoxO1 and CD11b) were purchased from (eBiosciences, BioLegend, Invitrogen or Cell Signaling). Intracellular flow cytometry staining was performed using Fix and Perm cell permeabilization kit (ADG). Cell viability was measured using Sytox® blue dead cell stain (Life Technologies). FACS Cantoll (BD Biosciences) was used for flow cytometry, and FlowJo v.10.1 was used for data analysis.

[2] = test system: BCR-ABL1 transformed cells; assay: CXCL12-induced Ca2+ flux; format: cell-based, mouse; settings: CXCL12 100 ng/ml
Method: A total of 1×10^6 cells were loaded with Indo-1 AM (Invitrogen) and used for Ca^2+ analyses^62. 100 ng/m1 of CXCL12 was used for stimulation

[3] = test system: human Ph+ ALL SUP-B15 cell line; assay: IL7R and CXCR4 surface expression after imatinib in a human Ph+ ALL cell line; format: cell-based; settings: 5 μM imatinib, day 7, surface expression
Method: 68 BCR-ABL+ ALL patients were treated according to European intergroup study of post-induction treatment of Philadelphia-chromosome-positive ALL (EsPhALL) 2004 and 2010 protocols (NCT00287105) and ALL-Berlin-Frankfurt-Münster (BFM) 2000 (NCT00430118) study. Informed consent was obtained according to institutional regulations, in accordance with the Declaration of Helsinki. 697, SUP-B15, and TOM-1 cell lines were obtained from DSMZ. Ph+ ALL cells containing T3151 mutation was kindly provided by M. Miischen (Shojaee, S., et al. Nat Med 22, 379-387 (2016)).

[4] = target: B2; assay: proximity ligation assay on mouse pre-B cells
[5] = target: T1, mouse Jak3 in pre-B cells (mouse, UniProt Q62137 1-1100); assay: proximity ligation assay on mouse BCR-ABL1 transformed pre-B cells
T1 construct: Detected in cells by PLA with an antibody from Cell Signaling
T1 sequence (looked up): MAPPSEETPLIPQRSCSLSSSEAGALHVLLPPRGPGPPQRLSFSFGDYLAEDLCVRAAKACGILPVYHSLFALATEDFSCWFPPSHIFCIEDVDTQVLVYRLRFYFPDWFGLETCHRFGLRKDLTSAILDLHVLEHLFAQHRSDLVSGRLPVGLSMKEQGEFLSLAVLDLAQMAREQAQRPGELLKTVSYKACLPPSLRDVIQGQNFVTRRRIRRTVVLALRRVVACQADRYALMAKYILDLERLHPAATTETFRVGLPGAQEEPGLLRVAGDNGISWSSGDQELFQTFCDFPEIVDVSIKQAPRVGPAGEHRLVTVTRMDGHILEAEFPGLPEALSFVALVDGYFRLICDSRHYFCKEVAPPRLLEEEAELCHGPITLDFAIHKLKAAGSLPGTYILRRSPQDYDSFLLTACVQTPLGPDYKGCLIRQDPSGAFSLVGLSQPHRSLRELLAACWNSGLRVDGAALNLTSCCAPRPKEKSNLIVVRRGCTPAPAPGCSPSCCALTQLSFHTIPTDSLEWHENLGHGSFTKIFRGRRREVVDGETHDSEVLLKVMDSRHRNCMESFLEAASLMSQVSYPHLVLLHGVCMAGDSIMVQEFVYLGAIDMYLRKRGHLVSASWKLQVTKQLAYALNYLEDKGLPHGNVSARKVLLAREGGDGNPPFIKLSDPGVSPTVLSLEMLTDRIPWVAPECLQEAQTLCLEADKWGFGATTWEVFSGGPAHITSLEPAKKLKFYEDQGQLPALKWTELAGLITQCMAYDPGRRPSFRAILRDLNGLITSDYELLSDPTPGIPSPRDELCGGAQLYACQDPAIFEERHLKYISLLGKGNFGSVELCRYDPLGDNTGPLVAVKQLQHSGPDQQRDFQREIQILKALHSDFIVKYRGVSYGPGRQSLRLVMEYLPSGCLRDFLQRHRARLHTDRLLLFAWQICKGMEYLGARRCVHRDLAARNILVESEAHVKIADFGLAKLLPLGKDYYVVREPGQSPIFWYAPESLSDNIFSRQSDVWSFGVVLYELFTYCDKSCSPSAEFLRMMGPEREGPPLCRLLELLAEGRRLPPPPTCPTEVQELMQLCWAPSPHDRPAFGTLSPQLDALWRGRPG

[6] = target: T1, mouse Jak3 in pre-B cells; assay: proximity ligation assay on mouse WT and BCR-ABL1 transformed pre-B cells
[7] = target: T2, human interleukin 7 receptor (IL7R) on SUP-B15 Ph+ BCP-ALL cells (human, UniProt P16871 21-459); assay: Fab-PLA on SUP-B15 cells in comparison to Ramos cells
T2 construct: whole, on cells; In the immunoprecipitation it comes from SUP-B15 lysate; also called IL7Rα; human IL7Rα
T2 sequence (looked up): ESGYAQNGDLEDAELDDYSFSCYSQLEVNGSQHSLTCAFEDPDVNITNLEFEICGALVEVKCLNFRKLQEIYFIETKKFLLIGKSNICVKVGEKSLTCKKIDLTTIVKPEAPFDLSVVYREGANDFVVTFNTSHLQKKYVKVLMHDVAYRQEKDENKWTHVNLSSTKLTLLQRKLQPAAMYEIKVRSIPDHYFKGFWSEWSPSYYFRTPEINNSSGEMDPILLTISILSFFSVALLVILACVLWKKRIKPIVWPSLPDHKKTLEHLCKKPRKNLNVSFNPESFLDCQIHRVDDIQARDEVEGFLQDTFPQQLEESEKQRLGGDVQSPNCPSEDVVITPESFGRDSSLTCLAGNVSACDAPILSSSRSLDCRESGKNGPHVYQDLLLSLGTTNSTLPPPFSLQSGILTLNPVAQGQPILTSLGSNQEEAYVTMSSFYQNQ

Molecule: c1cc(CN2CCCNCCNCCCNCC2)ccc1CN1CCCNCCNCCCNCC1 [AMD3100]
- effect on imatinib-induced cell death [1]: did not affect imatinib treatment
- CXCL12-induced Ca2+ response [2]: prevented the Ca^2+ response

Molecule: Cc1ccc(NC(=O)c2ccc(CN3CCN(C)CC3)cc2)cc1Nc1nccc(-c2cccnc2)n1 [imatinib]
- expression of IL7R and CXCR4 [3]: upregulated IL7R and CXCR4

Molecule: CXCL12: chemokine, the ligand for CXCR4
- effect on imatinib-induced cell death [1]: did not affect imatinib treatment

Molecule: TSLP: the ligand for CRLF2
- effect on imatinib-induced cell death [1]: unable to rescue BCR-ABL1 transformed cells from inhibitor-induced cell death

B1: mouse CXCR4 on bone marrow-derived pre-B cells (WT or BCR-ABL1 transformed) (receptor, UniProt P70658 1-359, looked up)
chain: MEPISVSIYTSDNYSEEVGSGDYDSNKEPCFRDENVHFNRIFLPTIYFIIFLTGIVGNGLVILVMGYQKKLRSMTDKYRLHLSVADLLFVITLPFWAVDAMADWYFGKFLCKAVHIIYTVNLYSSVLILAFISLDRYLAIVHATNSQRPRKLLAEKAVYVGVWIPALLLTIPDFIFADVSQGDISQGDDRYICDRLYPDSLWMVVFQFQHIMVGLILPGIVILSCYCIIISKLSHSKGHQKRKALKTTVILILAFFACWLPYYVGISIDSFILLGVIKQGCDFESIVHKWISITEALAFFHCCLNPILYAFLGAKFKSSAQHALNSMSRGSSLKILSKGKRGGHSSVSTESESSSFHSS
notes: whole, on cells
- binding result [4]: binds
- binding result [5]: binds

Molecule: B2
- binding result [6]: binds

B3: human CXCR4 on SUP-B15 cells (receptor, UniProt P61073 1-352, looked up)
chain: MEGISIYTSDNYTEEMGSGDYDSMKEPCFREENANFNKIFLPTIYSIIFLTGIVGNGLVILVMGYQKKLRSMTDKYRLHLSVADLLFVITLPFWAVDAVANWYFGNFLCKAVHVIYTVNLYSSVLILAFISLDRYLAIVHATNSQRPRKLLAEKVVYVGVWIPALLLTIPDFIFANVSEADDRYICDRFYPNDLWVVVFQFQHIMVGLILPGIVILSCYCIIISKLSHSKGHQKRKALKTTVILILAFFACWLPYYIGISIDSFILLEIIKQGCEFENTVHKWISITEALAFFHCCLNPILYAFLGAKFKTSAQHALTSVSRGSSLKILSKGKRGGHSSVSTESESSSFHSS
notes: whole, on cells; In the immunoprecipitation it comes from SUP-B15 lysate; also called C-X-C chemokine receptor 4
- binding result [7]: binds

B4: IL7: cytokine that binds IL7Rα chain (protein)
chain: DCDIEGKDGKQYESVLMVSIDQLLDSMKEIGSNCLNNEFNFFKRHICDANKEGMFLFRAARKLRQFLKMNSTGDFDLHLLKVSEGTTILLNCTGQVKGRKPAALGEAQPTKSLEENKSLKEQKKLNDLCFLKRLLQEIKTCWNKILMGTKEH
- effect on imatinib-induced cell death [1]: counteracted imatinib-induced cell death and restored the cell cycle progression
